Measurements reported in PubChem BioAssay (NCI).
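How tested: cells in 96-well plates exposed to compound for 48 hours at five concentrations. Here, GI50 denotes the concentration required for 50% inhibition of growth. TGI is the concentration that stops growth completely.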

Columns and labels:
Assay in all cases: NCI tumour cell line growth inhibition, 48 h
[1] = tested on: A498 renal
[2] = tested on: CAKI-1 renal
[3] = tested on: RPMI-8226 leukemia
[4] = tested on: SK-OV-3 ovarian
[5] = tested on: 786-0 renal
[6] = tested on: A549 NSCLC
[7] = tested on: ACHN renal
[8] = tested on: BT-549 breast
[9] = tested on: CCRF-CEM leukemia
[10] = tested on: COLO 205 colon
[11] = tested on: DU-145 prostate
[12] = tested on: EKVX NSCLC
[13] = tested on: HCC-2998 colon
[14] = tested on: HCT-116 colon
[15] = tested on: HCT-15 colon
[16] = tested on: HL-60(TB) leukemia
[17] = tested on: HOP-62 NSCLC
[18] = tested on: HS 578T breast
[19] = tested on: HT29 colon
[20] = tested on: IGROV1 ovarian
[21] = tested on: K-562 leukemia
[22] = tested on: KM12 colon
[23] = tested on: LOX IMVI melanoma
[24] = tested on: M14 melanoma
[25] = tested on: MCF7 breast
[26] = tested on: MDA-MB-231 breast
[27] = tested on: MDA-MB-435
[28] = tested on: MOLT-4 leukemia
[29] = tested on: NCI-H226 lung
[30] = tested on: NCI-H23 lung
[31] = tested on: NCI-H460 lung
[32] = tested on: NCI-H522 lung
[33] = tested on: NCI/ADR-RES ovarian
[34] = tested on: OVCAR-3 ovarian
[35] = tested on: OVCAR-4 ovarian
[36] = tested on: OVCAR-5 ovarian
[37] = tested on: OVCAR-8 ovarian
[38] = tested on: PC-3 prostate
[39] = tested on: RXF 393 renal
[40] = tested on: SF-268 CNS
[41] = tested on: SF-295 CNS
[42] = tested on: SF-539 CNS
[43] = tested on: SK-MEL-2 melanoma
[44] = tested on: SK-MEL-28 melanoma
[45] = tested on: SK-MEL-5 melanoma
[46] = tested on: SN12C renal
[47] = tested on: SNB-19 CNS
[48] = tested on: SNB-75 CNS
[49] = tested on: SR leukemia
[50] = tested on: SW-620 colon
[51] = tested on: T-47D breast
[52] = tested on: TK-10 renal
[53] = tested on: U251 CNS
[54] = tested on: UACC-257 melanoma
[55] = tested on: UACC-62 melanoma
[56] = tested on: UO-31 renal

## C=C(C)[C@@H]1CCC[C@]2(COS(=O)(=O)c3ccc(C)cc3)CC[C@]3(C)[C@@H](CC[C@@H]4[C@@]5(C)CCCNC(C)(C)[C@@H]5CC[C@]43C)[C@@H]12
[1]
  GI50: 1.63 µM
  TGI: 3.14 µM
[2]
  GI50: 1.74 µM
  TGI: 3.15 µM
[3]
  GI50: 1.86 µM
  TGI: 4.54 µM
[4]
  GI50: 1.87 µM
  TGI: 3.3 µM

## NC(=O)c1sc(-n2cnc3ccccc32)cc1OCc1ccccc1Br
[5]
  GI50: 11.1 µM
  TGI: > 25 µM
[1]
  GI50: 4.11 µM
  TGI: 14.4 µM
[6]
  GI50: 6.06 µM
  TGI: > 25 µM
[7]
  GI50: 15.8 µM
  TGI: > 25 µM
[8]
  GI50: 9.68 µM
  TGI: > 25 µM
[2]
  GI50: 14.2 µM
  TGI: > 25 µM
[9]
  GI50: 1.34 µM
  TGI: > 25 µM
[10]
  GI50: 1.58 µM
  TGI: 23.2 µM
[11]
  GI50: 2.02 µM
  TGI: 7.19 µM
[12]
  GI50: 17.9 µM
  TGI: > 25 µM
[13]
  GI50: 6.38 µM
  TGI: > 25 µM
[14]
  GI50: 2.61 µM
  TGI: > 25 µM
[15]
  GI50: 6.95 µM
  TGI: > 25 µM
[16]
  GI50: 1.28 µM
  TGI: > 25 µM
[17]
  GI50: 3.67 µM
  TGI: > 25 µM
[18]
  GI50: 9.11 µM
  TGI: > 25 µM
[19]
  GI50: 1.06 µM
  TGI: > 25 µM
[20]
  GI50: 11 µM
  TGI: > 25 µM
[21]
  GI50: 6.71 µM
  TGI: > 25 µM
[22]
  GI50: 1.26 µM
  TGI: > 25 µM
[23]
  GI50: 1.98 µM
  TGI: > 25 µM
[24]
  GI50: 5.71 µM
  TGI: > 25 µM
[25]
  GI50: 0.86 µM
  TGI: > 25 µM
[26]
  GI50: 4.96 µM
  TGI: > 25 µM
[27]
  GI50: 0.795 µM
  TGI: 5.47 µM
[28]
  GI50: 3.56 µM
  TGI: > 25 µM
[29]
  GI50: 11.9 µM
  TGI: > 25 µM
[30]
  GI50: 4.03 µM
  TGI: > 25 µM
[31]
  GI50: 2.36 µM
  TGI: > 25 µM
[32]
  GI50: 3.99 µM
  TGI: 12.7 µM
[33]
  GI50: 0.869 µM
  TGI: > 25 µM
[34]
  GI50: 1.55 µM
  TGI: 17.6 µM
[35]
  GI50: > 25 µM
  TGI: > 25 µM
[36]
  GI50: 4.94 µM
  TGI: > 25 µM
[37]
  GI50: 4.83 µM
  TGI: 23.5 µM
[38]
  GI50: 10.3 µM
  TGI: > 25 µM
[3]
  GI50: 12.6 µM
  TGI: > 25 µM
[39]
  GI50: 1.73 µM
  TGI: > 25 µM
[40]
  GI50: 4.98 µM
  TGI: > 25 µM
[41]
  GI50: 3.9 µM
  TGI: > 25 µM
[42]
  GI50: 5.47 µM
  TGI: > 25 µM
[43]
  GI50: 6.43 µM
  TGI: > 25 µM
[44]
  GI50: > 25 µM
  TGI: > 25 µM
[45]
  GI50: 4.75 µM
  TGI: > 25 µM
[4]
  GI50: 6.94 µM
  TGI: > 25 µM
[46]
  GI50: 14.2 µM
  TGI: > 25 µM
[47]
  GI50: 11.6 µM
  TGI: > 25 µM
[48]
  GI50: 10.2 µM
  TGI: > 25 µM
[49]
  GI50: 3.09 µM
  TGI: > 25 µM
[50]
  GI50: 1.17 µM
  TGI: > 25 µM
[51]
  GI50: 23.1 µM
  TGI: > 25 µM
[52]
  GI50: 11.3 µM
  TGI: > 25 µM
[53]
  GI50: 4.44 µM
  TGI: > 25 µM
[54]
  GI50: 17.3 µM
  TGI: > 25 µM
[55]
  GI50: 5.88 µM
  TGI: > 25 µM
[56]
  GI50: 15.4 µM
  TGI: > 25 µM
